The target of one data set is T1, IL-2 receptor beta gamma (Homo sapiens, UniProt P14784+P31785).
T1 construct: host or cells: U2OS (PathHunter)
T1 sequence (P14784 27-551): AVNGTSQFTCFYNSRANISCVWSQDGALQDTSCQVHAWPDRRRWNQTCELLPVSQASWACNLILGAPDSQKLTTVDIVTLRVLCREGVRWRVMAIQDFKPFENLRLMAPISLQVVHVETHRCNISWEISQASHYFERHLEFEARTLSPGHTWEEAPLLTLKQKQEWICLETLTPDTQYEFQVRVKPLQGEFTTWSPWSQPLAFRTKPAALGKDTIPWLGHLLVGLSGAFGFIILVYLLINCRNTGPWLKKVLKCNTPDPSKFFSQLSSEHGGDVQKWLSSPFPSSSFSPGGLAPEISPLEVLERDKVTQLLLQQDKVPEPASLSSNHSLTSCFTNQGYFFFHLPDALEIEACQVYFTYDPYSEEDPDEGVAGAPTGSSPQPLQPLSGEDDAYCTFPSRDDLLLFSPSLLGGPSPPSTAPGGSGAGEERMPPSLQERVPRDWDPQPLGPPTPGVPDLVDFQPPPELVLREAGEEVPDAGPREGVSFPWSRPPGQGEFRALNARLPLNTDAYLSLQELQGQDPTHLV
T1 sequence (P31785 23-369): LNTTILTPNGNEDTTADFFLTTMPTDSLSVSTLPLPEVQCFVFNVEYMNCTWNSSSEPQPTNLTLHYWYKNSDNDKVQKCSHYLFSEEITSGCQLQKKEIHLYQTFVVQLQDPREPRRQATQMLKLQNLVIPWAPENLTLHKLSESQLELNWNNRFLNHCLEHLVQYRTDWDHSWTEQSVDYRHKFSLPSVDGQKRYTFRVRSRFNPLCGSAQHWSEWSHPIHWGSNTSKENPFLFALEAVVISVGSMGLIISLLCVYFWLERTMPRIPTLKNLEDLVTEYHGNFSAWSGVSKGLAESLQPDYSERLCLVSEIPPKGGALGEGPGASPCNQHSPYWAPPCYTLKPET
Put plainly: PathHunter IL-2 Cytokine Receptor agonist assay, beta gamma. Format: cell-based. The conditions noted are these: U2OS PathHunter cells IL-2Rbeta/gamma; mass of IL-2 polypeptide only, without mPEG or linker. As to the method:
(§1) For example, the compounds labelled “D20_30” in this example is the compound having SEQ ID NO: 4 in which the structure of Formula (II), Formula (III), or a mixture of Formula (II) and (III) was substituted at the D20 residue (SEQ ID NO: 67) with a PEG group having a molecular weight of 30 kDa. Similarly, the following compounds were tested in this Example:
(§2) A second cell line was engineered to express the IL-2Ralpha subunit.
(§3) PathHunter cell lines were expanded from freezer stocks according to standard procedures. Cells were seeded in a total volume of 20 μL into white walled, 384-well microplates and incubated for the appropriate time prior to testing. […] Intermediate dilution of sample stocks was performed to generate 5× sample in assay buffer. About 5 μL of 5× sample was added to cells and incubated at 37° C. for a period of from 6 hours to 16 hours depending on the assay. Vehicle concentration was 1%. […] For some assays, activity was detected using a high sensitivity detection reagent (PathHunter Flash Kit) to improve assay performance. […] Microplates were read following signal generation with a PerkinElmer Envision instrument for chemiluminescent signal detection.
(§4) Compound activity was analyzed using CBIS data analysis suite software (ChemInnovation, CA).

In data set [1] the target is T2, IL-2 receptor alpha beta gamma (Homo sapiens, UniProt P01589+P14784+P31785).
T2 construct: host or cells: U2OS (PathHunter)
T2 sequence (P01589 22-272): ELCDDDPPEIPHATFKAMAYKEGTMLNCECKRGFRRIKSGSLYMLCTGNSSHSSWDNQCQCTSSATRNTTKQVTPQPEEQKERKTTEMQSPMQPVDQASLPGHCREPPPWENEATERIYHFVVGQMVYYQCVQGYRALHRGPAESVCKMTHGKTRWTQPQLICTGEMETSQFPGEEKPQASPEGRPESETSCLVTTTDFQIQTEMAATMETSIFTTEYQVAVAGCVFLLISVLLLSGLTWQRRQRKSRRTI
T2 sequence (P14784 27-551): T1 sequence (P14784 27-551)
T2 sequence (P31785 23-369): T1 sequence (P31785 23-369)
Put plainly: PathHunter IL-2 Cytokine Receptor agonist assay, alpha beta gamma. To be noted: U2OS PathHunter cells with IL-2Ralpha; mass of IL-2 polypeptide only, without mPEG or linker. Format: cell-based. As to the method:
as §1, §2, §3, §4

For data set [2] the following is noted: cited from earlier work.
The subject of data set [3] is white blood cell count (WBC), lymphocyte count. Put plainly: Hematology after single subcutaneous dose in Cynomolgus monkeys. Format: in vivo, Cynomolgus monkey. An excerpt:
Each of the conjugates described below, except H16_30 kDa and H16_50 kDa, had SEQ ID NO: 4 in which the indicated amino acid position is substituted with the structure of Formula (II), Formula (III), or a mixture of Formula (II) and (III), and they contain a PEG chain of the indicated size. For example, the variant labeled “L19_30 kDa” has SEQ ID NO: 4 in which the amino acid at position L19 is replaced by the structure of Formula (II), Formula (III), or a mixture of Formula (II) and (III), and contains a 30 kDa, linear mPEG group. For the H16_30 kDa and H16_50 kDa variants, the compounds had SEQ ID NO: 4 in which the indicated amino acid position is substituted with the structure of Formula (IV), Formula (V), or a mixture of Formula (IV) and […] a linear, mPEG group having a molecular weight of 30 kDa or 50 kDa, respectively.
Blood samples were taken from each animal at the following time points: Samples for hematology: Day −1, Day 1 (Predose), 3, 6, 10, 15 and 22. Samples for pharmacokinetics and pharmacodynamics: (Predose), 0.5, 1, 2, 4, 8, 24, 36, 48, 72, 96, 120, 144, 168, and 240, 360, 528 (Day 22) hours post-dose. Cytokine sample collection and analysis: Day −1, and Day 1 (Predose), 8, 24, 72, 120 and 168, 360, and 528 (Day 22) hours post-dose.

Another data set has as its system CD8+ Tcells. Put plainly: pSTAT5 signaling in human LRS-derived PBMC samples, CD8+ T cells (flow cytometry). To be noted: from MFI plots. Format: cell-based. The procedure:
(§5) Conjugates of Table 3 were synthesized by modification of SEQ ID NO. 1.
(§6) These studies were performed at PrimityBio LLC (Fremont, CA).
(In general: A flow cytometer gives signals particle by particle.)

A further data set has as its system CTLL-2. Put plainly: CTLL-2 proliferation. Format: cell-based. The conditions noted are these: mouse CTLL-2. From the text: FIG. 4A-FIG. 4B show the dose response curves for pSTAT5 signaling in human LRS primary cell (FIG. 4A) and proliferation response in mouse CTLL-2 populations (FIG. 4B).
A further data set deals with NK cells. Put plainly: pSTAT5 signaling in human LRS-derived PBMC samples, NK cells (flow cytometry). Format: cell-based. To be noted: from MFI plots. The procedure: as §5, §6
The next data set deals with Treg cells. Put plainly: pSTAT5 signaling in human LRS-derived PBMC samples, Treg cells (flow cytometry). To be noted: for Fold increase in Treg EC50 vs native IL-2: compared to native IL-2 run in each individual experiment; for Treg cells, dose response EC50 for pSTAT5 signaling: human LRS samples, from MFI plots; for CD8+/Treg ratio: ratio of pSTAT5 EC50, human LRS samples. Format: cell-based. As to the method:
as §5, §6

Broadly, the half-life is how long it takes for the measured level to halve.

With “H16_30kDa: SEQ ID NO: 4 with Formula (II), (III) or mixture at H16 (SEQ ID NO: 65), linear mPEG 30 kDa”, the “Beta gamma EC50” value in the data set with IL-2 receptor beta gamma came out at 5742 ng/mL. The “Alpha beta gamma EC50” value in data set [1] is 3.3 ng/mL.

Consider “human transferrin: 679 amino acid polypeptide that is about 80 kDa in size”, for which the half-life in data set [2] is 170 to 288 h.

As for “L19_30kDa: SEQ ID NO: 4 with Formula (II), (III) or mixture at L19 (SEQ ID NO: 66), 30 kDa linear mPEG”, the “Date at the peak of lymphocytes” value in data set [3] (0.03 mg/kg single subcutaneous dose) and in data set [3] (0.16 mg/kg single subcutaneous dose) was 6 days post each time.

With “N88R: IL-2 variant of Table 3 labelled N88R, no PEG size given [reference compound]”, in the data set on CD8+ Tcells, the “CD8+ Tcells, dose response EC50 for pSTAT5 signaling” value is 15025734 pg/ml. For the same substance, the “CTLL-2 proliferation EC50” value in the data set on CTLL-2 came to 0.363 ng/mL. Also, the “NK cells, dose response EC50 for pSTAT5 signaling” value with NK cells was found to be 2312847 pg/ml. Besides, in the data set with Treg cells, the “Fold increase in Treg EC50 vs native IL-2” value was 148; the “Treg cells, dose response EC50 for pSTAT5 signaling” value is on record as 11082 pg/ml; the “CD8+/Treg ratio” value stood at 1356.

Regarding “V91K: IL-2 variant of Table 3 labelled V91K, no PEG size given [reference compound]”, the “CD8+ Tcells, dose response EC50 for pSTAT5 signaling” value with CD8+ Tcells worked out at 102255 pg/ml. For the same substance, in the data set on CTLL-2, the “CTLL-2 proliferation EC50” value came to 0.0995 ng/mL. In addition, the “NK cells, dose response EC50 for pSTAT5 signaling” value in the data set with NK cells amounted to 20537 pg/ml. In addition, in the data set on Treg cells, the “Fold increase in Treg EC50 vs native IL-2” value was determined as 3; the “Treg cells, dose response EC50 for pSTAT5 signaling” value stood at 142 pg/ml; the “CD8+/Treg ratio” value came to 720.

In the case of “N88_30kDa: SEQ ID NO: 4 with Formula (II), (III) or mixture at N88 (SEQ ID NO: 70), linear mPEG 30 kDa”, in data set [3] (0.37 mg/kg single subcutaneous dose), the “Date at the peak of lymphocytes” value worked out at 6 days post.

Source of the values: US12234271B2 (Synthorx, Inc., priority 2019, dated 2025).
